In PMC8898348 (Journal of the Indian Chemical Society, 2022):
Like-named read-outs stand apart in the source and are kept apart here. Where a SMILES comes first, the peptide text is derived from it. The star is where a group is joined. MeOSuc = COC(=O)CCC(=O)*; CH2Cl = ClC*

Assays:
[1] = test system: SPC-A-1, SK-LU-1, and 95D human lung cancer cell lines; assay: MTT cytotoxicity assay, three lung cancer cell lines together; assay type: cell-based; conditions: read-out: IC50 growth inhibition in the three lung cancer cells
[2] = test system: 95D; assay: MTT cytotoxicity assay, 95D; assay type: cell-based; conditions: Homo sapiens, read-out: 95D IC50
[3] = test system: SK-LU-1; assay: MTT cytotoxicity assay, SK-LU-1; assay type: cell-based; conditions: Homo sapiens, SK-LU-1, read-out: SK-LU-1 IC50
[4] = molecular target: Elastase (Sus scrofa, UniProt P00772); assay: elastase inhibitory activity, spectrophotometric; assay type: biochemical
Sequence of Elastase (P00772 27-266): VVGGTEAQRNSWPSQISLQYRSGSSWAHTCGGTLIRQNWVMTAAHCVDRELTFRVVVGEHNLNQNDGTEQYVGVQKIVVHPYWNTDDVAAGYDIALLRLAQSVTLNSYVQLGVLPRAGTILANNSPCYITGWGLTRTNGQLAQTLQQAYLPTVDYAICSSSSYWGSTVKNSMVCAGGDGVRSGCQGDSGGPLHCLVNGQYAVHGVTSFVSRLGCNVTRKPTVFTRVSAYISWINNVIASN

[5] = molecular target: Collagenase; assay: collagenase enzyme inhibition, spectrophotometric; assay type: biochemical; conditions: read-out: Collagenase IC50

Row | SMILES | IC50 [1] [µM] | IC50 [2] [µM] | IC50 [3] [µM] | IC50 [4] [µM] | IC50 [5] [µM] | IC50 ([4]; read-out: Elastase IC50) [µM]
1 | COc1cccc2c1C(=O)c1c(O)c3c(c(O)c1C2=O)C[C@@](O)(C(=O)CO)C[C@@H]3O[C@H]1C[C@H](N)[C@H](O)[C@H](C)O1 [Doxorubicin, reference compound] | 25 to 30 | 25 | 25 |  |  | 
2 | OC[C@H](Cc1cccc(O)c1)[C@H](CO)Cc1cccc(O)c1 [Enterodiol] |  | 64.1 | 67.3 | 11.1 ± 1.87 | 104 ± 11.3 | 
3 | O=C1OC[C@H](Cc2cccc(O)c2)[C@H]1Cc1cccc(O)c1 [Enterolactone] |  | 41.1 | 45.8 | 22.5 ± 4.08 | 9.66 ± 1.52 | 
4 | COc1ccc(/C=C/C(=O)c2c(O)cc(OC)cc2OC)cc1 [Flavokawain A] | 12 to 30 | 22.4 | 23.3 | 27.3 ± 4.67 | 66.3 ± 7.95 | 
5 | COc1cc(O)c(C(=O)/C=C/c2ccccc2)c(OC)c1 [Flavokawain B] | 12 to 30 | 32.6 | 29.3 | 20.1 ± 2.36 | 71.1 ± 16 | 
6 | COc1cc(O)c(C(=O)/C=C/c2ccc(O)cc2)c(OC)c1 [Flavokawain C] | 12 to 30 | 21 | 22.7 | 17.6 ± 1.68 | 62.1 ± 9.43 | 
7 | COC(=O)CCC(=O)N[C@@H](C)C(=O)N[C@@H](C)C(=O)N1CCC[C@H]1C(=O)N[C@H](C(=O)CCl)C(C)C [N-(Methoxysuccinyl)-Ala-Ala-Pro-Val-chloromethyl ketone, reference compound] (MeOSuc-AAPV-CH2Cl) |  |  |  |  |  | 30.6 ± 3.25
8 | CC(C)C[C@H](NP(=O)(O)O[C@@H]1O[C@@H](C)[C@H](O)[C@@H](O)[C@H]1O)C(=O)N[C@@H](Cc1c[nH]c2ccccc12)C(=O)O [Phosphoramidon, reference compound] |  |  |  |  | 101 ± 14.8 | 
